Laboratory results from ChEMBL document CHEMBL5131471, “Design, synthesis and mechanism studies of novel dual PARP1/BRD4 inhibitors against pancreatic cancer” (Eur J Med Chem, 2022).

Experiments:
HCT-116 = test: Antiproliferative activity against BRCA2-mutated human HCT-116 cells assessed as inhibition of cell growth measured after 7 days by MTT assay; type: functional, cell-based; details: HCT-116, 168 h
CAPAN-1 = test: Antiproliferative activity against human CAPAN-1 cells assessed as inhibition of cell growth measured after 4 days by MTT assay; type: functional, cell-based; details: CAPAN-1, 96 h
[1] = target: Poly [ADP-ribose] polymerase 1 (Homo sapiens, UniProt P09874); test: Inhibition of PARP1 (unknown origin) using biotinylated NAD+ as substrate by microplate reader method
Poly [ADP-ribose] polymerase 1, sequence (P09874 whole entry): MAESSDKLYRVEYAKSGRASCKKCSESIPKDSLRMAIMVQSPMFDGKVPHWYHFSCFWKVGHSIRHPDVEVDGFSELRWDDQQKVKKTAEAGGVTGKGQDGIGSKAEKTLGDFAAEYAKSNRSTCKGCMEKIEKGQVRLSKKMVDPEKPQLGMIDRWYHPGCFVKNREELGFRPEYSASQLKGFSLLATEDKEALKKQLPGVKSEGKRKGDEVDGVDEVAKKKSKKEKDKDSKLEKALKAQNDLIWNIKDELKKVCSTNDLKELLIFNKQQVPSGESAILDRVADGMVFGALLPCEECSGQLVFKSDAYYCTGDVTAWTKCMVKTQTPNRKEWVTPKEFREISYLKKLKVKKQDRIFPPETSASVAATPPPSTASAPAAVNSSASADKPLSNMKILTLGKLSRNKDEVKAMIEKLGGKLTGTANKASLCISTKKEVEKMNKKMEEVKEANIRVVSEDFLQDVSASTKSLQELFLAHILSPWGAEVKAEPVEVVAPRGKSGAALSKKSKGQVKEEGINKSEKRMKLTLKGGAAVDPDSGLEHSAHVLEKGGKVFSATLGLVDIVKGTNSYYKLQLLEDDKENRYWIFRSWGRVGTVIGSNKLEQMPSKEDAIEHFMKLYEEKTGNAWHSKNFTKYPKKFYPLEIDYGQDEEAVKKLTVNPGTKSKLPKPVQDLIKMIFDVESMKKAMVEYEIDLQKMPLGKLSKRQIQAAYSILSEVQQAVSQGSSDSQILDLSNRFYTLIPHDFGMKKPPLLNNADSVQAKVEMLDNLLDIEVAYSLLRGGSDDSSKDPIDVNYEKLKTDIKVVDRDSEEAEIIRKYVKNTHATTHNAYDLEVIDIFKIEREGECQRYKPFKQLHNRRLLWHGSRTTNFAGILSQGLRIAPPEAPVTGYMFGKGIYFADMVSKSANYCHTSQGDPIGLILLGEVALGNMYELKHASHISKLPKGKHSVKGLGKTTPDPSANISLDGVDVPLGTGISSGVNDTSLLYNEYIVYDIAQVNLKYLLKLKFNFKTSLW

CFPAC-1 = test: Antiproliferative activity against human CFPAC-1 cells assessed as inhibition of cell growth measured after 4 days by MTT assay; type: functional, cell-based; details: CFPAC-1, 96 h
MDA-MB-231 = test: Antiproliferative activity against BRCA-proficient human MDA-MB-231 cells assessed as inhibition of cell growth measured after 7 days by MTT assay; type: functional, cell-based; details: MDA-MB-231, 168 h
[2] = target: Bromodomain-containing protein 4 (Homo sapiens, UniProt O60885); test: Inhibition of BRD4-BD1/2 (unknown origin)
MDA-MB-468 = test: Antiproliferative activity against BRCA-proficient human MDA-MB-468 cells assessed as inhibition of cell growth measured after 7 days by MTT assay; type: functional, cell-based; details: MDA-MB-468, 168 h
THP-1 = test: Antiproliferative activity against human THP-1 cells expressing BRD4 assessed as inhibition of cell growth measured after 3 days by MTT assay; type: functional, cell-based; details: THP-1, 72 h
SW1990 = test: Antiproliferative activity against human SW1990 cells assessed as inhibition of cell growth measured after 4 days by MTT assay; type: functional, cell-based; details: SW1990, 96 h

Row | Compound | IC50 (HCT-116) | IC50 (CAPAN-1) | IC50 [1] | IC50 (CFPAC-1) | IC50 (MDA-MB-231) | IC50 [2] | IC50 (MDA-MB-468) | IC50 (THP-1) | IC50 (SW1990)
1 | Cc1noc(C)c1-c1ccc2c(c1)C(c1ccccc1)N(CC(=O)NC(C)(C)c1nc3c(C(N)=O)cccc3[nH]1)C(=O)N2 (stereo unspecified) | 11800 nM | 3710 nM | 62 nM | 2560 nM | 920 nM | 102 nM | 460 nM | 690 nM | 3880 nM
2 | Cc1noc(C)c1-c1ccc2c(c1)C(c1ccccc1)N(Cc1nc3c(C(N)=O)cccc3[nH]1)C(=O)N2 (stereo unspecified) | 3720 nM | 2310 nM | 361 nM | 2030 nM | 1320 nM | 43 nM | 1120 nM | 210 nM | 2520 nM
3 | Cc1noc(C)c1-c1ccc2c(c1)C(c1ccccc1)N(CC(=O)c1nc3c(C(N)=O)cccc3[nH]1)C(=O)N2 (stereo unspecified) | 44400 nM |  | 116 nM |  | 8090 nM | 132 nM | 2590 nM | 4090 nM | 
4 | Cc1noc(C)c1-c1ccc2c(c1)C(c1ccccc1)N(CC(=O)N[C@H](C)c1nc3c(C(N)=O)cccc3[nH]1)C(=O)N2 (stereo partly specified) | 16900 nM |  | 112 nM |  | 2600 nM | 116 nM | 930 nM | 1530 nM | 
5 | Cc1noc(C)c1-c1ccc2c(c1)C(c1ccccc1)N(CC(=O)N[C@@H](C)c1nc3c(C(N)=O)cccc3[nH]1)C(=O)N2C (stereo partly specified) | 5290 nM |  | 187 nM |  | 520 nM | 326 nM | 380 nM | 740 nM | 
6 | Cc1noc(C)c1-c1ccc2c(c1)C(c1ccccc1)N(CC(=O)NCc1nc3c(C(N)=O)cccc3[nH]1)C(=O)N2C (stereo unspecified) |  |  | 73 nM |  |  | 534 nM |  |  | 
7 | Cc1noc(C)c1-c1ccc2c(c1)C(c1ccccc1)N(CC(=O)NC(c1nc3c(C(N)=O)cccc3[nH]1)C(C)C)C(=O)N2 (stereo unspecified) |  |  | 326 nM |  |  | 114 nM |  |  | 
8 | Cc1noc(C)c1-c1ccc2c(c1)C(c1ccccc1)N(CC(=O)N[C@@H](C)c1nc3c(C(N)=O)cccc3[nH]1)C(=O)N2 (stereo partly specified) | 16500 nM |  | 52 nM |  | 2630 nM | 90 nM | 1040 nM | 1660 nM | 
